Like-named read-outs stand apart in the source and are kept apart here. Starred links: 1 amine or outer side, 2 acyl side, 3 side chain; linkers in the order of their positions; H or OH if unused. Positions of bridges follow the written chain, without caps; N, C: chain ends. Non-standard residues stand in square brackets, D forms with d. Residues, ends and D or L forms follow the SMILES beside them. Groups on a side chain read outwards from the residue. *: point of attachment. Ala(piperidin-4-yl) = O=C([C@H](CC1CCN([*:3])CC1)N[*:1])[*:2]; DOTA = O=C(O)CN1CCN(CC(=O)O)CCN(CC(=O)*)CCN(CC(=O)O)CC1; Phe(4-NHCONH2) = NC(=O)Nc1ccc(C[C@H](N)C(=O)O)cc1; Trp(5-F) = N[C@@H](Cc1c[nH]c2ccc(F)cc12)C(=O)O; Ala(4-THP) = N[C@@H](CC1CCOCC1)C(=O)O; X3 = O=C([C@H](CCC1CCC1)N[*:1])[*:2]; Val(3-OH) = CC(C)(O)[C@H](N)C(=O)O; 4Pal = N[C@@H](Cc1ccncc1)C(=O)O; Aad = N[C@@H](CCCC(=O)O)C(=O)O; PEG4 = NCCOCCOCCOCCOCCC(=O)O; Tle = CC(C)(C)[C@H](N)C(=O)O; hLeu = CC(C)CC[C@H](N)C(=O)O; Dab = NCC[C@H](N)C(=O)O
Key:
[1] = tested on: Calu-6 cell line; test: Cell associated (bound) fraction of [177Lu]Lu-labeled peptide in Calu-6 cells; assay type: cell-based, Human; settings: 1 hour, 37° C.
How it was run: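 Detached B7-H3-expressing human lung cancer cells at 5 million/mL were exposed for 1 hour at 37 °C to 0.8 μCi of the 177Lu-labelled peptide, which was formulated in 1% PBSA after labelling at 80 °C, pH ~5. Supernatant and two cold washes counted as unbound, and resuspended cells gamma-counted as the cell-associated fraction.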

[2] = tested on: Calu-6 cell line; test: Net internalization of [177Lu]Lu-labeled peptide in Calu-6 cells; assay type: cell-based, Human; settings: 1 hour, 37° C., glycine pH 2.5 acid wash
How it was run: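 Calu-6 cells, human non-engineered lung cancer expressing B7-H3, resuspended in 1% PBSA at 5 million cells/mL and incubated with the 177Lu-labeled conjugate (labeled at 80 °C, pH ~5, RP-HPLC checked). Gamma counting of the bound fraction, then of the pellet after two glycine pH 2.5 acid strips and NaOH lysis, gives internalized activity.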

[3] = target: T1, human 4lg B7-H3 (Homo sapiens, UniProt Q5ZPR3); test: Affinity determination by surface plasmon resonance (SPR) to 4Ig B7-H3; settings: 4Ig B7-H3
T1 sequence (Q5ZPR3 29-534): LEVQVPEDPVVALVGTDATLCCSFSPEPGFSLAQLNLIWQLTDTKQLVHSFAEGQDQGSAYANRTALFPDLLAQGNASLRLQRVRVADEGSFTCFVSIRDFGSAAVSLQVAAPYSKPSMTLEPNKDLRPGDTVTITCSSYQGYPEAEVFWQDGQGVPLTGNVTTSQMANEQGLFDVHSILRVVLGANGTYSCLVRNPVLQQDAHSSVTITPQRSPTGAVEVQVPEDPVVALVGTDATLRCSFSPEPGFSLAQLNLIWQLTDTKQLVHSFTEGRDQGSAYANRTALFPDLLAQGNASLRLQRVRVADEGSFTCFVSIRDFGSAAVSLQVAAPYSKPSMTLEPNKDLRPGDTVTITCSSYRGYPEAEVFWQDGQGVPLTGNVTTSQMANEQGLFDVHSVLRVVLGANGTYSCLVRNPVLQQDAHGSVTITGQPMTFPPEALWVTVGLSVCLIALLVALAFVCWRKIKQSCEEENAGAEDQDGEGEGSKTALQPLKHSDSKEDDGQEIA

[4] = read-out: SPR KD—37° C., 37° C. flow cell temperature

SMILES | % cell associated fraction [1] | % net internalization [2] | Kd ([3]; SPR KD—25° C., 25° C. flow cell temperature) [nM] | Kd [3, 4] [nM] | Kd ([3]; SPR KD—37° C., 37° C. flow cell temperature) [nM] | Kd ([3]; read-out: SPR KD—25° C., 25° C. flow cell temperature) [nM]
CC[C@H](C)[C@@H]1NC(=O)[C@@H](NC(=O)[C@H](Cc2ccc(O)cc2)NC(=O)[C@H](CCC(C)C)NC(C)=O)CSSC[C@@H](C(=O)N[C@@H](Cc2c[nH]c3ccc(F)cc23)C(=O)N[C@@H](Cc2ccccc2)C(=O)N[C@H](C(N)=O)C(C)(C)O)NC(=O)[C@H](Cc2ccc(O)cc2)NC(=O)[C@H](C(C)C)NC(=O)[C@H](CC(=O)O)NC(=O)[C@H](CC2CCNCC2)NC(=O)[C@H](CCCCNC(=O)CN2CCN(CC(=O)O)CCN(CC(=O)O)CCN(CC(=O)O)CC2)NC(=O)CNC1=O [compound 203, Ac-hLeu-Y-C-Ile-G-Lys(DOTA)-PipAla-D-V-Y-C-5FW-F-hydroxyVal-CONH2] (Ac-[hLeu]YCIGK(DOTA)[Ala(piperidin-4-yl)]DVYC[Trp(5-F)]F[Val(3-OH)]-NH2; disulfide 3-11) | B (25<%≤50) | A (%≤25) | < 1 | – | – | –
CC(=O)N[C@@H](CCC(C)C)C(=O)N[C@@H](Cc1ccc(O)cc1)C(=O)N[C@H]1CSSC[C@@H](C(=O)N[C@@H](Cc2c[nH]c3ccc(F)cc23)C(=O)N[C@@H](Cc2ccccc2)C(=O)N[C@H](C(=O)N[C@H](C)C(N)=O)C(C)(C)O)NC(=O)[C@H](Cc2ccc(O)cc2)NC(=O)[C@H](C(C)C)NC(=O)[C@H](CC(=O)O)NC(=O)[C@H](CC2CCN(C(=O)CCOCCOCCOCCOCCNC(=O)CN3CCN(CC(=O)O)CCN(CC(=O)O)CCN(CC(=O)O)CC3)CC2)NC(=O)[C@H](CCCCN)NC(=O)CNC(=O)[C@H](C(C)(C)C)NC1=O [compound 385, Ac-hLeu-Y-C-Tbg-G-K-Pip(PEG4-DOTA)Ala-D-V-Y-C-5FW-F-hydroxyVal-dAla-CONH2] (Ac-[hLeu]YC[Tle]GK[Ala(piperidin-4-yl)]([PEG4-DOTA])DVYC[Trp(5-F)]F[Val(3-OH)][dA]-NH2; disulfide 3-11) | C (%>50) | B (25<%≤50) | – | < 1 | – | –
CC(=O)N[C@@H](CCC(C)C)C(=O)N[C@@H](Cc1ccc(O)cc1)C(=O)N[C@H]1CSSC[C@@H](C(=O)N[C@@H](Cc2c[nH]c3ccc(F)cc23)C(=O)N[C@@H](Cc2ccccc2)C(=O)N[C@H](C(=O)N[C@H](CCCCNC(=O)[C@H](CCCC(=O)O)NC(=O)CN2CCN(CC(=O)O)CCN(CC(=O)O)CCN(CC(=O)O)CC2)C(=O)O)C(C)(C)O)NC(=O)[C@H](Cc2ccc(O)cc2)NC(=O)[C@H](C(C)C)NC(=O)[C@H](CC(=O)O)NC(=O)[C@H](CC2CCOCC2)NC(=O)[C@H](CC2CCNCC2)NC(=O)CNC(=O)[C@H](C(C)(C)C)NC1=O [compound 464, Ac-hLeu-Y-C-Tbg-G-PipAla-ThpA-D-V-Y-C-5FW-F-hydroxyVal-dLys(hGlu-DOTA)-COOH] (Ac-[hLeu]YC[Tle]G[Ala(piperidin-4-yl)][Ala(4-THP)]DVYC[Trp(5-F)]F[Val(3-OH)][dK]([Aad-DOTA])-OH; disulfide 3-11) | C (%>50) | A (%≤25) | – | < 1 | – | –
CC(=O)N[C@@H](CCC(C)C)C(=O)N[C@@H](Cc1ccc(O)cc1)C(=O)N[C@H]1CSSC[C@@H](C(=O)N[C@@H](Cc2c[nH]c3ccc(F)cc23)C(=O)N[C@@H](Cc2ccccc2)C(=O)N[C@H](C(=O)N[C@H](CCCCNC(=O)CN2CCN(CC(=O)O)CCN(CC(=O)O)CCN(CC(=O)O)CC2)C(=O)O)C(C)(C)O)NC(=O)[C@H](Cc2ccc(O)cc2)NC(=O)[C@H](C(C)C)NC(=O)[C@H](CC(=O)O)NC(=O)[C@H](CC2CCOCC2)NC(=O)[C@H](CCN)NC(=O)CNC(=O)[C@H](C(C)(C)C)NC1=O [compound 371, Ac-hLeu-Y-C-Tbg-G-Dab-ThpA-D-V-Y-C-5FW-F-hydroxyVal-dLys(DOTA)-COOH] (Ac-[hLeu]YC[Tle]G[Dab][Ala(4-THP)]DVYC[Trp(5-F)]F[Val(3-OH)][dK](DOTA)-OH; disulfide 3-11) | B (25<%≤50) | A (%≤25) | – | – | < 1 | –
CC(=O)N[C@@H](CCC1CCC1)C(=O)N[C@@H](Cc1ccc(O)cc1)C(=O)N[C@H]1CSSC[C@@H](C(=O)N[C@@H](Cc2c[nH]c3ccc(F)cc23)C(=O)N[C@@H](Cc2ccccc2)C(=O)N[C@H](C(=O)N[C@H](CCCCNC(=O)CN2CCN(CC(=O)O)CCN(CC(=O)O)CCN(CC(=O)O)CC2)C(=O)O)C(C)(C)O)NC(=O)[C@H](Cc2ccc(O)cc2)NC(=O)[C@H](C(C)C)NC(=O)[C@H](CC(=O)O)NC(=O)[C@H](CC2CCOCC2)NC(=O)[C@H](CCCCN)NC(=O)CNC(=O)[C@H](C(C)(C)C)NC1=O [compound 398, Ac-hCba-Y-C-Tbg-G-K-ThpA-D-V-Y-C-5FW-F-hydroxyVal-dLys(DOTA)-COOH] (Ac-[X3]YC[Tle]GK[Ala(4-THP)]DVYC[Trp(5-F)]F[Val(3-OH)][dK](DOTA)-OH; disulfide 3-11) | B (25<%≤50) | A (%≤25) | – | < 1 | – | –
CC(=O)N[C@@H](CCC(C)C)C(=O)N[C@@H](Cc1ccc(O)cc1)C(=O)N[C@H]1CSSC[C@@H](C(=O)N[C@@H](Cc2c[nH]c3ccc(F)cc23)C(=O)N[C@@H](Cc2ccccc2)C(=O)N[C@H](C(=O)N[C@H](C)C(=O)O)C(C)(C)O)NC(=O)[C@H](Cc2ccc(O)cc2)NC(=O)[C@H](C(C)C)NC(=O)[C@H](CC(=O)O)NC(=O)[C@H](CC2CCN(C(=O)CCOCCOCCOCCOCCNC(=O)CN3CCN(CC(=O)O)CCN(CC(=O)O)CCN(CC(=O)O)CC3)CC2)NC(=O)[C@H](CC2CCNCC2)NC(=O)CNC(=O)[C@H](C(C)(C)C)NC1=O [compound 455, Ac-hLeu-Y-C-Tbg-G-PipAla-Pip(PEG4-DOTA)Ala-D-V-Y-C-5FW-F-hydroxyVal-dAla-COOH] (Ac-[hLeu]YC[Tle]G[Ala(piperidin-4-yl)][Ala(piperidin-4-yl)]([PEG4-DOTA])DVYC[Trp(5-F)]F[Val(3-OH)][dA]-OH; disulfide 3-11) | C (%>50) | B (25<%≤50) | – | < 1 | – | –
CC(=O)N[C@@H](CCC(C)C)C(=O)N[C@@H](Cc1ccc(O)cc1)C(=O)N[C@H]1CSSC[C@@H](C(=O)N[C@@H](Cc2c[nH]c3ccccc23)C(=O)N[C@@H](Cc2ccccc2)C(=O)N[C@H](C(=O)N[C@H](CCCCNC(=O)CN2CCN(CC(=O)O)CCN(CC(=O)O)CCN(CC(=O)O)CC2)C(N)=O)[C@@H](C)O)NC(=O)[C@H](Cc2ccc(O)cc2)NC(=O)[C@H](C(C)C)NC(=O)[C@H](CC(=O)O)NC(=O)[C@H](Cc2ccncc2)NC(=O)[C@H](CCCCN)NC(=O)CNC(=O)[C@H](C(C)(C)C)NC1=O [compound 157, Ac-hLeu-Y-C-Tbg-G-K-4PyA-D-V-Y-C-W-F-Thr-dLys(DOTA)-CONH2] (Ac-[hLeu]YC[Tle]GK[4Pal]DVYCWFT[dK](DOTA)-NH2; disulfide 3-11) | B (25<%≤50) | A (%≤25) | – | – | – | < 1
CC(=O)N[C@@H](CCC(C)C)C(=O)N[C@@H](Cc1ccc(O)cc1)C(=O)N[C@H]1CSSC[C@@H](C(=O)N[C@@H](Cc2c[nH]c3ccc(F)cc23)C(=O)N[C@@H](Cc2ccccc2)C(=O)N[C@H](C(=O)N[C@H](CCCCNC(=O)CN2CCN(CC(=O)O)CCN(CC(=O)O)CCN(CC(=O)O)CC2)C(=O)O)C(C)(C)O)NC(=O)[C@H](Cc2ccc(NC(N)=O)cc2)NC(=O)[C@H](C(C)C)NC(=O)[C@H](CC(=O)O)NC(=O)[C@H](CC2CCOCC2)NC(=O)[C@H](CC2CCNCC2)NC(=O)CNC(=O)[C@H](C(C)(C)C)NC1=O [compound 427, Ac-hLeu-Y-C-Tbg-G-PipAla-ThpA-D-V-Aph(Cbm)-C-5FW-F-hydroxyVal-dLys(DOTA)-COOH] (Ac-[hLeu]YC[Tle]G[Ala(piperidin-4-yl)][Ala(4-THP)]DV[Phe(4-NHCONH2)]C[Trp(5-F)]F[Val(3-OH)][dK](DOTA)-OH; disulfide 3-11) | C (%>50) | B (25<%≤50) | – | < 1 | – | –
